Assay results published in patent US5698581A, “Substituted N-heteroaroylguanidines, a process for their preparation, their use as a medicament or diagnostic agent, and a medicament containing them” (Hoechst Aktiengesellschaft, priority 1994, dated 1997).

Molecular target: T1, Na^+ /H^+ exchanger of rabbit erythrocytes (Oryctolagus cuniculus, UniProt P23791)
T1 construct: determine the Na^+ influx into the erythrocytes via Na^+ /H^+ exchange; endogenous in cells; host or cells: erythrocytes in whole blood of cholesterol-fed New Zealand White rabbits
T1 sequence (P23791 whole entry): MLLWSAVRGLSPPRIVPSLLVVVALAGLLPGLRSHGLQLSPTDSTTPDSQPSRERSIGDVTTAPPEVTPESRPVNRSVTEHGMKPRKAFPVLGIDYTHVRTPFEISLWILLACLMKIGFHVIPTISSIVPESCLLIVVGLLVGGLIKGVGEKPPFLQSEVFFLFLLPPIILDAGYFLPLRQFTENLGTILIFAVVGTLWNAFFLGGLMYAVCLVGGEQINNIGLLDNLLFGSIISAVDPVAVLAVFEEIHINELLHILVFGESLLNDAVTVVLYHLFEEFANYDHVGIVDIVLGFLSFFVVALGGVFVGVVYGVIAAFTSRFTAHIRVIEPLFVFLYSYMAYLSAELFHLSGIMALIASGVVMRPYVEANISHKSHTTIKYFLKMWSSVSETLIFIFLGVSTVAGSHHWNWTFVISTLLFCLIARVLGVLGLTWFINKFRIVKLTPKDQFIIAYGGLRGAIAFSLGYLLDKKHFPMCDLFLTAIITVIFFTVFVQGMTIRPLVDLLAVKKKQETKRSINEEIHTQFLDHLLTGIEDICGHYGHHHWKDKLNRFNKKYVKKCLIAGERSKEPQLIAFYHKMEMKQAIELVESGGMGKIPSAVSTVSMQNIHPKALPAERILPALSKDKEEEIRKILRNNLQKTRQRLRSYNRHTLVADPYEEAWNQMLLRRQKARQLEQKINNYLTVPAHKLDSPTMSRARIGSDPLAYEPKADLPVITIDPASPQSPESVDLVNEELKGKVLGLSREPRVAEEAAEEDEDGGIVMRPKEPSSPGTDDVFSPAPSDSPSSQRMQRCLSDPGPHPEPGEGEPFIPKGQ
Assay: Inhibition of the Na^+ /H^+ exchanger of rabbit erythrocytes (amiloride-sensitive sodium influx, flame photometry)
Assay type: cell-based, rabbit (New Zealand White)
Settings: pH 7.4, 37° C., rabbits on 2% cholesterol diet
From the text: Inhibition of the Na^+ /H^+ exchanger of rabbit erythrocytes
New Zealand White rabbits (Ivanovas) were given a standard diet containing 2% cholesterol for six weeks in order to activate Na^+ /H^+ exchange and thus to be able to use flame photometry to determine the Na^+ influx into the erythrocytes via Na^+ /H^+ exchange. The blood was removed from the aural arteries and rendered incoagulable by the addition of 25 IU of potassium heparin. One part of each sample was used for the duplicate determination of the hematocrit by centrifugation. Aliquots of in each case 100 μl were employed for measuring the initial content of Na^+ in the erythrocytes.
In order to determine the amiloride-sensitive sodium influx, 100 μl of each blood sample were in each case incubated, at pH 7.4 and 37° C., in 5 ml of a hyperosmolar salt/sucrose medium (mmol/l: 140 NaCl, 3 KCl, 150 sucrose, 0.1 ouabain, 20 tris(hydroxymethyl)aminomethane). The erythrocytes were then washed three times with ice cold MgCl2 /ouabain solution (mmol/l: 112 MgCl2, 0.1 ouabain) and hemolyzed in 2.0 ml of distilled water. The intracellular content of sodium was determined by flame photometry.
The nett influx of Na^+ was calculated from the difference between the initial sodium values and the sodium content of the erythrocytes following incubation. The amiloride-inhibitable sodium Influx was given by the difference in the sodium content of the erythrocytes following incubation with and without 3×10^-4 mol/l amiloride. The same procedure was also used in the case of the compounds according to the invention.

Structure (SMILES) | IC50 [nM]
Cn1c(C(=O)N=C(N)N)ccc1C(F)(C(F)(F)F)C(F)(F)F [Example 1, 5-Heptafluoroisopropyl-1-methylpyrrole-2-carboguanidide] | 300
Cn1c(C(=O)N=C(N)N)ccc1C(F)(F)C(F)(F)C(F)(F)F [Example 2, 5-Heptafluoro-n-propyl-1-methylpyrrole-2-carboguanidide] | 1000
Cn1c(C(=O)N=C(N)N)ccc1C(F)(F)C(F)(F)F [Example 3, 5-Pentafluoroethyl-1-methylpyrrole-2-carboguanidide] | 300
Cn1c(C(=O)N=C(N)N)ccc1C(F)(F)F [Example 4, 5-Trifluoromethyl-1-methylpyrrole-2-carboguanidide] | 200
Cn1cccc1C(=O)N=C(N)N [Example 5, 1-Methylpyrrole-2-carboguanidide] | 5000
CC(C)c1sc(C(=O)N=C(N)N)cc1S(C)(=O)=O [Example 6, 5-Isopropyl-4-methylsulfonylthiophene-2-carboguanidide] | 500
Cc1ccc(C(=O)N=C(N)N)s1 [Example 7, 5Methylthiophene-2-carboguanidide] | 3000
NC(N)=NC(=O)c1cc(Br)c(Br)s1 [Example 8, 4,5-Dibromothiophene-2-carboguanidide] | 500
